Measured values reported in patent US5292887A, “Substituted imidazole derivatives and their preparation and use” (priority 1988, dated 1994).

Columns and labels:
α2-adrenoceptor [1] = target: T1, α2-adrenoceptor (Rattus norvegicus, UniProt P22909); assay: Reversal of detomidine-induced mydriasis in anaesthetized rat (α2-adrenoceptor antagonism); type: in vivo; details: dose producing 50 per cent reversal of detomidine-induced mydriasis; for ED50: iv
T1 construct: In anaesthetized rat, a standard dose of detomidine was administered intravenously; from tissue; host or cells: whole anaesthetized rat (pupil response, in vivo)
T1 sequence (P22909 1-465): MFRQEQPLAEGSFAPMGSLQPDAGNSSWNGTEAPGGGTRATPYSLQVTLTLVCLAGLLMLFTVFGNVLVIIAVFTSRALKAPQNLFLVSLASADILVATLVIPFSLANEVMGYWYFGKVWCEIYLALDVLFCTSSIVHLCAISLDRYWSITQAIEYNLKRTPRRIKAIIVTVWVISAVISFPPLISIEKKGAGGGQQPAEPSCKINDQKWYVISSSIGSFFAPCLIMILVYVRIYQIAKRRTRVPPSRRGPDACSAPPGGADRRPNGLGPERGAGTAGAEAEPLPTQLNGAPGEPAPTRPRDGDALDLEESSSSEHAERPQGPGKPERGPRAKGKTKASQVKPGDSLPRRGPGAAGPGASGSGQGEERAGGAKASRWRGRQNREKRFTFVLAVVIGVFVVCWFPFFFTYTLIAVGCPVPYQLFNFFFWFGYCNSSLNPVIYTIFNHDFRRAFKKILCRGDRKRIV

α2-adrenoceptor [2] = target: T1, α2-adrenoceptor; assay: Duration of the α2-blocking action (time for antagonism of detomidine mydriasis to fall by half, oral); type: in vivo; details: oral at equipotent doses, time taken for antagonism of 0,1 mg/kg detomidine mydriasis to fall by half
Protocol: It is known that in the rat α2 -agonists induce dilatation of the pupil (mydriasis) which effect is transmitted via postsynaptic α2 -receptors. In anaesthetized rat, a standard dose of detomidine was administered intravenously. Thereafter increasing doses of the studied antagonist were injected intravenously and the reversal of detomidine-induced mydriasis was followed. The ED50 value of the antagonist, i.e. the dose producing a 50 per cent reversal, was determined.
The duration of the α2 -blocking action of the compounds was determined as follows: the antagonists were administered orally at eqvipotent doses to groups of 4 rats 1, 2, 4, 7 or 16 hours before induction of anaesthesia and challenge with cumulative i.v. dosing of detomidine. By calculating the percentage antagonism of the mydriatic effect of 0,1 mg/kg detomidine for each pretreatment group, a time-effect relationship was established. This in turn permitted the measurement of the time taken for the antagonist effect to fall by half.

α1-adrenoceptor = target: T2, α1-adrenoceptor (Rattus norvegicus, UniProt P43140); assay: α1-adrenoceptor antagonism, phenylephrine-induced contraction of isolated anococcygeus muscle; details: vs phenylephrine, read-out: α1-antagonism (pA2 vs phenylephrine) (converted)
T2 sequence (P43140 1-466): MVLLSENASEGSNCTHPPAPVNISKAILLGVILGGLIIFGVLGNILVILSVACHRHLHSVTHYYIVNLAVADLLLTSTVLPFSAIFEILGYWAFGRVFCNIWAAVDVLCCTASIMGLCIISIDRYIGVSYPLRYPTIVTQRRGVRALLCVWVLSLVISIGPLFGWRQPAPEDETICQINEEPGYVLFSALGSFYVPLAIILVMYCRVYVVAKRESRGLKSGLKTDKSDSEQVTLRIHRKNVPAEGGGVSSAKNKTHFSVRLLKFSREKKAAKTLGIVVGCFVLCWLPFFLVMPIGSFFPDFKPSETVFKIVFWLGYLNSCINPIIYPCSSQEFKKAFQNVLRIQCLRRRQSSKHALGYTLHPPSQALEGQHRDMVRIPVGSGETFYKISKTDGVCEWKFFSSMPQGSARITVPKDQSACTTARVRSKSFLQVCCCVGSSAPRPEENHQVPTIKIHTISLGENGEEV
Protocol: 2. α1 -adrenoceptor antagonism
To obtain information also on the selectivity of the antagonist between α1 - and α2 -receptors, its ability to inhibit α1 -receptors was determined by means of isolated anococcygeus muscle (rat). The reference substances were now phenylephrine, a known α1 -agonist, and prazosin, a known α1 -antagonist. To determine α1 -antagonism, muscular contraction was induced by phenylephrine and the pA2 value of the studied compound was determined (Arunlakshana & Schild, Br. J. Pharmacol. 14, 48-62, 1959).

[3] = tested on: isolated rat pancreas (postsynaptic α2-adrenoceptors); assay: Potentiation of insulin release from isolated perfused pancreas; parameters: species or system rat (Sprague-Dawley); details: 1 × 10^-6 M, 11 mM glucose; for Insulin in the perfusate, -5 min: before compound addition
Protocol: 3. Potentiation of insulin release from isolated pancreas
Samples for determination of insulin concentration in the perfusate were collected before and during 30 min after adding the studied compounds+glucose. Insulin was measured by a RIA-kit (NOVO).

SMILES	ED50 (α2-adrenoceptor [1]) [mg/kg]	Duration of α2-antagonism (α2-adrenoceptor [2]) [h]	Kb (α1-adrenoceptor) [µM]	α2-antagonism (ED50 vs detomidine) (α2-adrenoceptor [1]; i.v.) [mg/kg]	Insulin in the perfusate, +1 min [3] [ng/mL]	Insulin in the perfusate, +10 min [3] [ng/mL]	Insulin in the perfusate, +20 min [3] [ng/mL]	Insulin in the perfusate, +30 min [3] [ng/mL]	Insulin in the perfusate, -5 min [3] [ng/mL]
CCC1(c2cn(C)cn2)Cc2ccccc2C1 [compound 1, 4-(2-ethyl-2,3-dihydro-1H-inden-2-yl)-1-methyl-1H-imidazole]	0.3	2.0	7.94						
c1ccc2c(c1)OCC(C1=NCCN1)O2 (stereo not drawn) [idazoxan, reference compound]		< 1	5.01	0.02					
CCC1(c2cn(Cc3ccccc3)cn2)Cc2ccccc2C1 [compound 4, 1-benzyl-4-(2-ethyl-2,3-dihydro-1H-inden-2-yl)-1H-imidazole]	2		1						
CCC1(c2cn(C)cn2)Cc2ccccc2C1=O (stereo not drawn) [compound 5, 2-ethyl-2-(1-methyl-1H-imidazol-4-yl)-1-indanone]	0.1	11.0	> 10						
OCC1(c2c[nH]cn2)Cc2ccccc2C1 [compound 6, [2,3-dihydro-2-(1H-imidazol-4-yl)-1H-inden-2-yl]methanol]	0.2		> 10						
CCC1(c2cnc[nH]2)Cc2ccccc2C1 [atipamezole, reference compound]		1.0	> 10		5.0	3.0	6.3	15.1	< 0.1
CCCn1cnc(C2(CC)Cc3ccccc3C2)c1 [compound 3, 4-(2-ethyl-2,3-dihydro-1H-inden-2-yl)-1-n-propyl-1H-imidazole]	0.3		6.31						
COCC1(c2cn(C)cn2)Cc2ccccc2C1 [compound 7, 4-(2,3-dihydro-2-methoxymethyl-1H-inden-2-yl)-1-methyl-1H-imidazole]	0.3	7.0	> 10		26.0	11.5	15.9	22.0	< 0.1
CCn1cnc(C2(CC)Cc3ccccc3C2)c1 [compound 2, 1-ethyl-4-(2-ethyl-2,3-dihydro-1H-inden-2-yl)-1H-imidazole]	0.2		6.31						

The next lines start with results.

ED50 (α2-adrenoceptor [1]) [mg/kg]	Duration of α2-antagonism (α2-adrenoceptor [2]) [h]	Kb (α1-adrenoceptor) [µM]	SMILES	α2-antagonism (ED50 vs detomidine) (α2-adrenoceptor [1]; i.v.) [mg/kg]	Insulin in the perfusate, +1 min [3] [ng/mL]	Insulin in the perfusate, +10 min [3] [ng/mL]	Insulin in the perfusate, +20 min [3] [ng/mL]	Insulin in the perfusate, +30 min [3] [ng/mL]	Insulin in the perfusate, -5 min [3] [ng/mL]
0.3		> 10	CCCC1(c2cn(CC)cn2)Cc2ccccc2C1 [compound 8, 1-ethyl-4-(2,3-dihydro-2-n-propyl-1H-inden-2-yl)-1H-imidazole]						
0.1	7.0	> 10	CCn1cnc(C2(COC)Cc3ccccc3C2)c1 [compound 11, 1-ethyl-4-(2,3-dihydro-2-methoxymethyl-1H-inden-2-yl)-1H-imidazole]						
0.3	7.0	> 10	CCn1cnc(C2(CO)Cc3ccccc3C2)c1 [compound 10, [2-(1-ethyl-1H-imidazol-4-yl)-2,3-dihydro-1H-inden-2-yl]methanol]						
0.3		> 10	CCCC1(c2cn(C)cn2)Cc2ccccc2C1 [compound 9, 4-(2,3-dihydro-2-n-propyl-1H-inden-2-yl)-1-methyl-1H-imidazole]						
0.2	16.0	> 10	CCn1cnc(C2(CC)Cc3ccccc3C2=O)c1 (stereo not drawn) [compound 12, 2-ethyl-2-(1-ethyl-1H-imidazol-4-yl)-1-indanone]						
